Experimental data from patent publication US11708318B2, “Polymorphic forms of RAD1901-2HCL” (Radius Pharmaceuticals, Inc., priority 2017, dated 2023).

Experiment: Gravimetric Vapour Sorption (GVS), with XRPD of the recovered sample
Assay type: physicochemical
Description: Sorption isotherms were obtained using a SMS DVS Intrinsic moisture sorption analyzer, controlled by DVS Intrinsic Control software v1.0.1.2 (or v 1.0.1.3). The sample temperature was maintained at 25° C. by the instrument controls. The humidity was controlled by mixing streams of dry and wet nitrogen, with a total flow rate of 200 ml/min. The relative humidity was measured by a calibrated Rotronic probe (dynamic range of 1.0-100% RH), located near the sample. The weight change, (mass relaxation) of the sample as a function of % RH was constantly monitored by the microbalance (accuracy ±0.005 mg).
A sample (e.g., 20 mg) was placed in a tared mesh stainless steel basket under ambient conditions. The sample was loaded and unloaded at 40% RH and 25° C. (typical room conditions). A moisture sorption isotherm was performed as outlined below (2 scans giving 1 complete cycle). Standard isotherms were performed at 25° C. at 10% RH intervals over a 0-90% RH range. Data analysis was carried out using Microsoft Excel using DVS Analysis Suite v6.2 (or 6.1 or 6.0).
In a cycle of 2 scans, the first scan was performed with adsorption of 40-90% RH, followed by a second scan with desorption of 90-0% RH and adsorption of 0-40% RH, with intervals of 10% RH, at 25° C. with stability dm/dt of 0.002% ° C./min. The sorption time was 6 hr time out.
The sample was recovered after completion of the isotherm and re-analyzed by XRPD. Custom moisture sorption methods were also performed at 25° C. at fixed % RH intervals over a 0-95% RH range, with the purpose to fully understand the sorption/desorption behavior of the compound under elevated conditions.
To further explore the humidity behavior of Sample 1 (Form 1) upon exposure to high RH (>90%), custom GVS experiments were designed and carried out. Initially, the sample was treated by holding at 90 and then 95% RH for ˜12 hours to see if hydrate formation could be observed (HighRH method of Steps 1 and 2 of Table 2, FIGS. 6C-6D).
To test the stability of the hydrated state, GVS method HighRH_Desorp_3 was designed with a desorption step and subsequent adsorption (see Table 2 with steps 1-4, FIGS. 6E-6F).
Finally, to ensure complete conversion to the anhydrous and hydrated forms, a GVS experiment was designed to increase both the length of the desorption step at 0% RH, and the adsorption step at 95% RH, respectively (Table 3). Based on the weight stabilization observed in the kinetic plots for Sample 1 in HighRH and HighRH_Desorp_3 methods discussed above (FIGS. 6D and 6F), a holding time of 800 mins at 0% RH and 1600 mins at 95% RH were chosen. A double cycle was also recorded for this experiment to observe whether the sample would return to Form 1 or form a mixed anhydrous/hydrated species (see Table 3, FIGS. 6G-6H).

GVS uptake 0-90% RH (25° C., 0-90% RH): 1.8% wt. | GVS uptake when held at 95% RH (HighRH method, held at 95% RH for ~12 hours): 5-6 % wt. | XRPD post GVS (HighRH_DoubleCycle_2 method) (double cycle, 1600 mins at 95% RH, 800 mins at 0% RH): formation of the hydrate (Form 3) | XRPD post GVS (HighRH_Desorp_3 method) (single cycle: to 95% RH, desorption to 0% RH, adsorption 0-40% RH): mixture of Form 1 and Form 3
Compound: CCNCCc1ccc(CN(CC)c2cc(OC)ccc2[C@@H]2CCc3cc(O)ccc3C2)cc1.Cl.Cl [Sample 1]
Solid form on exposure to high RH (>90%) by GVS (above 90% RH): irreversibly converted to a hydrate (Form 3) | XRPD post GVS (HighRH method) (held at 90 and then 95% RH for ~12 hours): mixture of states or incomplete conversion
